Where “and” joins values, the source holds several entries; their conditions need not be identical. Identical values can stand only once. Inconclusive results and toxic doses are left out.
Test system: CD2F1 mice, L1210 leukemia sc, survival T/C
Experiment: NCI In Vivo Anticancer Drug Screen. Data for tumor model L1210 Leukemia (subcutaneous) in CD2F1 (CDF1) mice
Settings: higher = longer survival
Procedure: The antitumor activity of compounds was measured in mice bearing transplantable tumors. Survival or tumor size were measured and the results are expressed as the measurement made in the treated group (T) divided by the measurement made in the vehicle treated control group (C). The tumor model used in this assay is L1210 Leukemia (subcutaneous) in CD2F1 (CDF1) mice

[1] = endpoint: median survival time, dose: 100.0 mg/kg/injection, schedule: Q01DX009 (ip), vehicle: saline
[2] = endpoint: median survival time, dose: 200.0 mg/kg/injection, schedule: Q01DX009 (ip), vehicle: saline

Which results are given for CN(C)/N=N/c1nc[nH]c1C(N)=O?
T/C (endpoint: mean survival time, dose: 39.0 mg/kg/injection, schedule: Q01DX009 (sc), vehicle: steriod suspending solution): 118 % of control; T/C (endpoint: mean survival time, dose: 50.0 mg/kg/injection, schedule: Q01DX017 (sc), vehicle: steriod suspending solution): 117 % of control; T/C (endpoint: mean survival time, dose: 65.0 mg/kg/injection, schedule: Q01DX009 (sc), vehicle: steriod suspending solution): 118 % of control; T/C (endpoint: mean survival time, dose: 200.0 mg/kg/injection, schedule: Q01DX017 (sc), vehicle: steriod suspending solution): 156 % of control; T/C (endpoint: mean survival time, dose: 400.0 mg/kg/injection, schedule: Q01DX017 (sc), vehicle: steriod suspending solution): 172 % of control; T/C (endpoint: median survival time, dose: 6.25 mg/kg/injection, schedule: Q01DX009 (ip), vehicle: saline): 104 % of control; T/C (endpoint: median survival time, dose: 12.5 mg/kg/injection, schedule: Q01DX009 (ip), vehicle: saline): 121 % of control; T/C (endpoint: median survival time, dose: 39.0 mg/kg/injection, schedule: Q01DX009 (sc), vehicle: steriod suspending solution): 114 % of control; T/C (endpoint: median survival time, dose: 39.0 mg/kg/injection, schedule: Q01DX Z (sc), vehicle: steriod suspending solution): 111 % of control; T/C (endpoint: median survival time, dose: 50.0 mg/kg/injection, schedule: Q01DX017 (sc), vehicle: steriod suspending solution): 118 % of control and 122 % of control; T/C (endpoint: median survival time, dose: 65.0 mg/kg/injection, schedule: Q01DX009 (sc), vehicle: steriod suspending solution): 117 % of control; T/C (endpoint: median survival time, dose: 65.0 mg/kg/injection, schedule: Q01DX Z (sc), vehicle: carboxymethylcellulose (CMC)): 100 % of control; T/C (endpoint: median survival time, dose: 65.0 mg/kg/injection, schedule: Q01DX Z (sc), vehicle: steriod suspending solution): 116 % of control; T/C (endpoint: median survival time, dose: 100.0 mg/kg/injection, schedule: Q01DX009 (ip), vehicle: saline with Tween-80): 157 % of control; T/C [1]: 157 % of control; T/C (endpoint: median survival time, dose: 100.0 mg/kg/injection, schedule: Q01DX009 (sc), vehicle: saline): 151 % of control; T/C (endpoint: median survival time, dose: 108.0 mg/kg/injection, schedule: Q01DX Z (sc), vehicle: carboxymethylcellulose (CMC)): 100 % of control; T/C (endpoint: median survival time, dose: 150.0 mg/kg/injection, schedule: Q01DX009 (ip), vehicle: saline): 178 % of control; T/C (endpoint: median survival time, dose: 180.0 mg/kg/injection, schedule: Q01DX Z (sc), vehicle: carboxymethylcellulose (CMC)): 100 % of control; T/C (endpoint: median survival time, dose: 200.0 mg/kg/injection, schedule: Q01DX009 (ip), vehicle: saline with Tween-80): 160 % of control; T/C [2]: 166 % of control; T/C (endpoint: median survival time, dose: 200.0 mg/kg/injection, schedule: Q01DX017 (sc), vehicle: steriod suspending solution): 152 % of control and 155 % of control; T/C (endpoint: median survival time, dose: 225.0 mg/kg/injection, schedule: Q01DX009 (sc), vehicle: saline): 186 % of control; T/C (endpoint: median survival time, dose: 300.0 mg/kg/injection, schedule: Q01DX009 (ip), vehicle: saline): 172 % of control; T/C (endpoint: median survival time, dose: 300.0 mg/kg/injection, schedule: Q01DX009 (sc), vehicle: steriod suspending solution): 153 % of control; T/C (endpoint: median survival time, dose: 300.0 mg/kg/injection, schedule: Q01DX Z (sc), vehicle: carboxymethylcellulose (CMC)): 100 % of control; T/C (endpoint: median survival time, dose: 300.0 mg/kg/injection, schedule: Q01DX Z (sc), vehicle: steriod suspending solution): 155 % of control; T/C (endpoint: median survival time, dose: 400.0 mg/kg/injection, schedule: Q01DX017 (sc), vehicle: steriod suspending solution): 175 % of control and 177 % of control; T/C (endpoint: median survival time, dose: 500.0 mg/kg/injection, schedule: Q01DX Z (sc), vehicle: carboxymethylcellulose (CMC)): 111 % of control and 100 % of control; T/C (endpoint: median survival time, dose: 600.0 mg/kg/injection, schedule: Q01DX009 (sc), vehicle: saline + alcohol): 160 % of control; T/C (endpoint: median survival time, dose: 600.0 mg/kg/injection, schedule: Q01DX009 (sc), vehicle: saline): 118 % of control; T/C (endpoint: median survival time, dose: 800.0 mg/kg/injection, schedule: Q01DX009 (ip), vehicle: saline with Tween-80): 96 % of control; T/C (endpoint: median survival time, dose: 833.0 mg/kg/injection, schedule: Q01DX Z (sc), vehicle: carboxymethylcellulose (CMC)): 150 % of control; T/C (endpoint: median survival time, dose: 900.0 mg/kg/injection, schedule: Q01DX009 (sc), vehicle: saline + alcohol): 155 % of control; T/C (endpoint: median survival time, dose: 1200.0 mg/kg/injection, schedule: Q01DX009 (sc), vehicle: saline): 90 % of control; T/C (endpoint: median survival time, dose: 1388.0 mg/kg/injection, schedule: Q01DX Z (sc), vehicle: carboxymethylcellulose (CMC)): 155 % of control

What does the source list for CS(=O)(=O)OCCCCOS(C)(=O)=O?
T/C (endpoint: median survival time, dose: 8.4 mg/kg/injection, schedule: Q01DX Z (sc), vehicle: methylcellulose (MC)): 100 % of control; T/C (endpoint: median survival time, dose: 14.0 mg/kg/injection, schedule: Q01DX Z (sc), vehicle: methylcellulose (MC)): 100 % of control; T/C (endpoint: median survival time, dose: 23.0 mg/kg/injection, schedule: Q01DX Z (sc), vehicle: methylcellulose (MC)): 100 % of control; T/C (endpoint: median survival time, dose: 39.0 mg/kg/injection, schedule: Q01DX Z (sc), vehicle: methylcellulose (MC)): 100 % of control; T/C (endpoint: median survival time, dose: 65.0 mg/kg/injection, schedule: Q01DX Z (sc), vehicle: methylcellulose (MC)): 100 % of control; T/C (endpoint: median survival time, dose: 108.0 mg/kg/injection, schedule: Q01DX Z (sc), vehicle: methylcellulose (MC)): 100 % of control

S=c1nc[nH]c2nc[nH]c12.[Ag] was tested. Which T/C (endpoint: median survival time, dose: 100.0 mg/kg/injection, schedule: Q01DX Z (sc), vehicle: water) did it give?
The T/C was 100 % of control.

And the T/C (endpoint: median survival time, dose: 200.0 mg/kg/injection, schedule: Q01DX Z (sc), vehicle: water)?
The T/C was 100 % of control.

What about the T/C (endpoint: median survival time, dose: 400.0 mg/kg/injection, schedule: Q01DX Z (sc), vehicle: water) of the same compound?
Its T/C is 100 % of control.

What about the T/C (endpoint: median survival time, dose: 800.0 mg/kg/injection, schedule: Q01DX Z (sc), vehicle: water) of the same compound?
Its T/C is 100 % of control.

What about the T/C (endpoint: median survival time, dose: 1600.0 mg/kg/injection, schedule: Q01DX Z (sc), vehicle: water) of the same compound?
Its T/C is 100 % of control.

With CO[C@@]12[C@H](COC(N)=O)C3=C(C(=O)C(C)=C(N)C3=O)N1C[C@@H]1N[C@@H]12 as the compound, how does the T/C (endpoint: median survival time, dose: 0.7 mg/kg/injection, schedule: Q01DX Z (sc), vehicle: saline) read?
The T/C was 100 % of control.

And the T/C (endpoint: median survival time, dose: 1.17 mg/kg/injection, schedule: Q01DX Z (sc), vehicle: saline)?
Its T/C is 100 % of control.

What about the T/C (endpoint: median survival time, dose: 1.95 mg/kg/injection, schedule: Q01DX Z (sc), vehicle: saline) of the same compound?
Its T/C is 100 % of control.

And the T/C (endpoint: median survival time, dose: 3.25 mg/kg/injection, schedule: Q01DX Z (sc), vehicle: saline)?
The T/C was 108 % of control.

And the T/C (endpoint: median survival time, dose: 9.03 mg/kg/injection, schedule: Q01DX Z (sc), vehicle: saline)?
Its T/C is 116 % of control.

Which results are given for CC[n+]1c(-c2ccccc2)c2cc(N)ccc2c2ccc(N)cc21?
T/C (endpoint: median survival time, dose: 5.0 mg/kg/injection, schedule: Q01DX Z (sc), vehicle: carboxymethylcellulose (CMC)): 100 % of control; T/C (endpoint: median survival time, dose: 8.4 mg/kg/injection, schedule: Q01DX Z (sc), vehicle: carboxymethylcellulose (CMC)): 94 % of control; T/C (endpoint: median survival time, dose: 14.0 mg/kg/injection, schedule: Q01DX Z (sc), vehicle: carboxymethylcellulose (CMC)): 100 % of control; T/C (endpoint: median survival time, dose: 23.0 mg/kg/injection, schedule: Q01DX Z (sc), vehicle: carboxymethylcellulose (CMC)): 100 % of control; T/C (endpoint: median survival time, dose: 39.0 mg/kg/injection, schedule: Q01DX Z (sc), vehicle: carboxymethylcellulose (CMC)): 105 % of control; T/C (endpoint: median survival time, dose: 64.0 mg/kg/injection, schedule: Q01DX Z (sc), vehicle: carboxymethylcellulose (CMC)): 111 % of control

How did the T/C (endpoint: median survival time, dose: 833.0 mg/kg/injection, schedule: Q01DX Z (sc), vehicle: methylcellulose (MC)) turn out when CCn1cnc2c(=S)nc[nH]c21 was run?
The T/C was 120 % of control.

With C[C@]12CC[C@H](OC3OC(CO)C(O)C(O)C3O)C[C@H]1CC[C@@H]1[C@@H]2CC[C@]2(C)[C@@H](C3=CCOC3=O)CC[C@]12O (stereo partly specified) as the compound, how does the T/C (endpoint: median survival time, dose: 3.0 mg/kg/injection, schedule: Q01DX Z (sc), vehicle: saline) read?
Its T/C is 110 % of control.

And the T/C (endpoint: median survival time, dose: 5.0 mg/kg/injection, schedule: Q01DX Z (sc), vehicle: saline)?
Its T/C is 110 % of control.

And the T/C (endpoint: median survival time, dose: 8.4 mg/kg/injection, schedule: Q01DX Z (sc), vehicle: saline)?
Its T/C is 110 % of control.

CN(CCN(C)C(=O)CCOS(C)(=O)=O)C(=O)CCOS(C)(=O)=O was tested. Which T/C (endpoint: median survival time, dose: 25.0 mg/kg/injection, schedule: Q01DX009 (ip), vehicle: saline) did it give?
Its T/C is 106 % of control and 107 % of control.

And the T/C (endpoint: median survival time, dose: 50.0 mg/kg/injection, schedule: Q01DX009 (ip), vehicle: saline)?
Its T/C is 123 % of control.

What about the T/C [1] of the same compound?
The T/C was 171 % of control.

And the T/C [2]?
The T/C was 103 % of control and 94 % of control.
